Consider seven compounds from patent US8865894B2, “Oxazolidin-2-one compounds and uses thereof” (Novartis AG, priority 2012, dated 2014).

This test deals with T1, human PI3Kδ (Homo sapiens, UniProt O00329).
T1 construct: made in house
T1 sequence (O00329 2-1044 limits assumed): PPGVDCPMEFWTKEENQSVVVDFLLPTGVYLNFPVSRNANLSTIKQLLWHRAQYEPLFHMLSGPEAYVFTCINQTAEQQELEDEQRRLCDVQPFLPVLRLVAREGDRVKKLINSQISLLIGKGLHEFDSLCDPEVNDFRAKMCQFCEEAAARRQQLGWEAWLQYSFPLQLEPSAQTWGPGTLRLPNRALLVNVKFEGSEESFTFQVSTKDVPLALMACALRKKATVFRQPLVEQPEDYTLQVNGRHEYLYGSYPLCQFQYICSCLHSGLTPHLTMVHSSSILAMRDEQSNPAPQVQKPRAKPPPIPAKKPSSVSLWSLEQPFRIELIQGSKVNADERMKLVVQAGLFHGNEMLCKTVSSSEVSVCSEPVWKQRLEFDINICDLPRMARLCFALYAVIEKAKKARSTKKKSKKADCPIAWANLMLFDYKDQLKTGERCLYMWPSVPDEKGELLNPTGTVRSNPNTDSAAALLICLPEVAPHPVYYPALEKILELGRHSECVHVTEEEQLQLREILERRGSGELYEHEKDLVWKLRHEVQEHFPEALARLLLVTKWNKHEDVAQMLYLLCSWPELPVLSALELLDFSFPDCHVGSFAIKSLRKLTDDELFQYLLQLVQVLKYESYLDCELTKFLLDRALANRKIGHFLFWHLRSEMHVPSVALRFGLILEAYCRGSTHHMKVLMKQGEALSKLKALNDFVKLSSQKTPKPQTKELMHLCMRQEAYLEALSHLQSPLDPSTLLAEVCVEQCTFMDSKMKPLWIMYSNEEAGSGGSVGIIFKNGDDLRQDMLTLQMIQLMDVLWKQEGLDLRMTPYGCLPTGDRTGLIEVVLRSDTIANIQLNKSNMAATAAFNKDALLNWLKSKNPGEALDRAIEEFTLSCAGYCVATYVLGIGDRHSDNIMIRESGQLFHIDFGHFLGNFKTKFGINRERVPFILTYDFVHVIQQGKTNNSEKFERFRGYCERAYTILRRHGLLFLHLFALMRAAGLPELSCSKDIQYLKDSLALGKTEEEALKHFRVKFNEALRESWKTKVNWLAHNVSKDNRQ
The test is described as follows: Biochemical PI3Kdelta (TR-FRET Adapta Universal Kinase Assay). The conditions noted are these: mean of n measurements, read-out: PIK3d/ IC50. Here is the method:
Test compounds were dissolved in DMSO (10 mM) and transferred into 1.4 mL flat bottom or V-shaped Matrix tubes carrying a unique 2D matrix chip by individual Novartis compound hubs. The numbers of these chips were distinctively linked to Novartis Pharma Numbers. The stock solutions were stored at −20° C. if not used immediately. For the test procedure the vials were defrosted and identified by a scanner whereby a working sheet was generated that guided the subsequent working steps.
Compounds were either manually diluted in DMSO for individual experiments (96 wells enabling 10 cpds at 8 (single points) concentrations) as described in or prepared as described below if tested for profiling in 384-wells. This format enabled the assay of maximally 40 individual test compounds at 8 concentrations (single points) including 4 reference compounds. The dilution protocol included the production of “pre-dilution plates”, “master plates” and “assay plates”.
96 polypropylene well plates were used as pre-dilution plates. A total of 4 pre-dilution plates were prepared including 10 test compounds each on the plate positions A1-A10, one standard compound at A11 and one DMSO control at A12. Programs have been written to run these pipetting steps on the HamiltonSTAR robots.
Identical “assay plates” were then prepared by pipetting 50 nL each of compound dilutions of the “master plates” into 384-well “assay plates”. The compounds were mixed with 4.5 μL of assays components plus 4.5 μL enzyme corresponding to a 1:181 dilution enabling the final concentration of 10, 3.0, 1.0, 0.3, 0.1, 0.03, 0.01 and 0.003 μM, respectively. The preparation of the “master plates” was handled by the Matrix PlateMate Plus robot and replication of “assay plates” by the HummingBird robot.
Catalytically active human PI3Kα, PI3Kβ, PI3Kδ, and mTOR were cloned, expressed and purified as described (Maira S M, Stauffer F, Brueggen J, Furet P, Schnell C, Fritsch C, Brachmann S, Chène P, de Pover A, Schoemaker K, Fabbro D, Gabriel D, Simonen M, Murphy L, Finan P, Sellers W, García-Echeverría C (2008), Mol Cancer Ther. 7:1851-63 and Maira S M, Pecchi S, Brueggen J, Huh K, Schnell C, Fritsch C, Nagel T, Wiesmann M, Brachmann S, Dorsch M, Chène P, Schoemaker K, De Pover A, Menezes D, Fabbro D, Sellers W, García-Echeverría C, Voliva C F (2011), Mol. Cancer Ther. accepted).
The TR-FRET Adapta™ Universal Kinase Assay Kit was purchased from Invitrogen Corporation (Carlsbad/CA, USA) (Cat. No. PV5099). The kit contains the following reagents: Adapta Eu-anti-ADP Antibody (Europium labeled anti-ADP antibody in HEPES buffered saline, Cat. No. PV5097), Alexa Fluor® 647-labeled ADP tracer (Alexa Fluor® 647-labeled ADP tracer in HEPES buffered saline, Cat. No. PV5098), proprietary TR-FRET dilution buffer pH 7.5 (Cat. No. PV3574).
PIK3CD substrate Phosphatidylinositol was obtained from Invitrogen (vesicules consisting of 2 mM PI in 50 mM HEPES pH7.5; Cat. No. PV5371). PIK3CG substrate Phosphatidylinositol-4,5-bisphosphate (PIP(4,5)2 was obtained from Invitrogen (PIP2:PS large unilamellar vesicules consisting of 1 mM PIP2: 19 mM PS in 50 mM HEPES pH7.5, 3 mM MgCl2, 1 mM EGTA; Cat. No. PV5100).
Time-Resolved Fluorescence Resonance Energy Transfer (TR-FRET) is a technology based on energy transfer between two adjacent dyes, from an excited electron in one dye (the donor) to an electron of an adjacent dye (the acceptor) through resonance, then released as a photon. This energy transfer is detected by an increase in the fluorescence emission of the acceptor, and a decrease in the fluorescence emission of the donor. TR-FRET assays for protein kinases use a long-lifetime lanthanide Terbium or Europium chelates as the donor species which overcome interference from compound autofluorescence or light scatter from precipitated compounds, by introducing a delay after excitation by a flashlamp excitation source. Results are often expressed as a ratio of the intensities of the acceptor and donor fluorophores.
In the case of `C[C@H]1CN(c2cc(-c3cnc(N)nc3C(F)(F)F)nc(N3CCOCC3)n2)C(=O)O1` [Example 16, (S)-3-(2′-Amino-2-morpholin-4-yl-4′-trifluoromethyl-[4,5′]bipyrimidinyl-6-yl)-5-methyl-oxazolidin-2-one], the IC50 is 21 nM.

As for `[2H]C1([2H])OC([2H])([2H])C([2H])([2H])N(c2nc(-c3cnc(N)nc3C(F)(F)F)cc(N3C(=O)OC[C@@H]3C)n2)C1([2H])[2H]` [Example 17, (S)-3-(2′-amino-2-D8-morpholino-4′-(trifluoromethyl)-[4,5′-bipyrimidin]-6-yl)-4-methyloxazolidin-2-one], the IC50 is 8 nM.

Regarding `C[C@H]1OC(=O)N(c2cc(-c3cnc(N)nc3C(F)(F)F)nc(N3CCOCC3)n2)[C@H]1CO` [Example 18, (4S,5R)-3-(2′-Amino-2-morpholin-4-yl-4′-trifluoromethyl-[4,5′]bipyrimidinyl-6-yl)-4-hydroxymethyl-5-methyl-oxazolidin-2-one], the IC50 turned out to be 8 nM. Next, `C[C@H]1[C@@H](CO)OC(=O)N1c1cc(-c2cnc(N)nc2C(F)(F)F)nc(N2CCOCC2)n1` [Example 19, (4S,5S)-3-(2′-Amino-2-morpholin-4-yl-4′-trifluoromethyl-[4,5′]bipyrimidinyl-6-yl)-5-hydroxymethyl-4-methyl-oxazolidin-2-one]: 9 nM; `Nc1ncc(-c2cc(N3C[C@H](CO)OC3=O)nc(N3CCOCC3)n2)c(C(F)(F)F)n1` [Example 20, (R)-3-(2′-Amino-2-morpholin-4-yl-4′-trifluoromethyl-[4,5′]bipyrimidinyl-6-yl)-5-hydroxymethyl-oxazolidin-2-one]: 23 nM; `Nc1ncc(-c2cc(N3C(=O)O[C@H]4COC[C@H]43)nc(N3CCOCC3)n2)c(C(F)(F)F)n1` [Example 21, (3aR,6aR)-3-(2′-amino-2-morpholino-4′-(trifluoromethyl)-[4,5′-bipyrimidin]-6-yl)-tetrahydrofuro[3,4-d]oxazol-2(3H)-one]: 17 nM. As to `C[C@H]1[C@@H](CCO)OC(=O)N1c1cc(-c2cnc(N)nc2C(F)(F)F)nc(N2CCOCC2)n1` [Example 23, (4S,5R)-3-(2′-Amino-2-morpholino-4′-(trifluoromethyl)-[4,5′-bipyrimidin]-6-yl)-5-(2-hydroxyethyl)-4-methyloxazolidin-2-one], the IC50 is 9 nM.
